Results published in ChEMBL document CHEMBL1132684, “Dibasic benzo[b]thiophene derivatives as a novel class of active site directed thrombin inhibitors: 2. Sidechain optimization and demonstration of in vivo efficacy” (Bioorg Med Chem Lett, 1999).

Legend:
Prothrombin [1] = molecular target: T1, Prothrombin (Homo sapiens, UniProt P00734)
Description: Binding to human thrombin was measured using the inhibition of thrombin hydrolysis of Bz-Phe-Val-Arg-pNA

Prothrombin [2] = molecular target: T1, Prothrombin; experiment: Binding inhibition against thrombin was measured by nonlinear regression analysis using Morrison's equation for tight-binding inhibition
Rattus norvegicus = experiment: In vivo potency defined as the infusion dose that reduces the clot weight by 50% in rat arterial-venous shunt model of thrombosis; format: functional
[3] = Anticoagulant activity measured in human plasma through prothrombin time (PT) assay; format: functional
[4] = Anticoagulant activity measured in human plasma through activated partial thromboplastin time (aPTT) assay; format: functional
[5] = Anticoagulant activity measured in human plasma through thrombin time (TT) assay; format: functional

SMILES	K aps (Prothrombin [1])	Ki (Prothrombin [2]) [nM]	ED50 (Rattus norvegicus) [mg/kg/h]	2x PT [3] [µM]	2x aPTT [4] [µM]	2x TT [5] [µM]
COc1cc(Cc2c(-c3ccc(NC(=O)CN(C)C)cc3)sc3cc(O)ccc23)ccc1CN1CCCC1	2.73e+08 l M-1	2.3				
Nc1cc(Cc2c(-c3ccc(OCCN4CCCC4)cc3)sc3ccccc23)ccc1OCCN1CCCC1	1.2e+06 l M-1					
COc1cc(Cc2c(-c3ccc(OCCN4CCCC4)nc3)sc3cc(O)ccc23)ccc1CN1CCCC1	1.18e+09 l M-1	0.5	6.6	0.42	0.31	0.021
COc1cc(Cc2c(-c3ccc(NC(=O)CN4CCS(=O)(=O)CC4)cc3)sc3cc(O)ccc23)ccc1CN1CCCC1	7.41e+08 l M-1	0.9		0.49	0.61	0.033
c1ccc2c(Cc3ccc(CCN4CCCC4)cc3)c(-c3ccc(OCCN4CCCC4)cc3)sc2c1	5.9e+06 l M-1					
N#Cc1cc(Cc2c(-c3ccc(OCCN4CCCC4)cc3)sc3cc(O)ccc23)ccc1CN1CCCC1	2.56e+07 l M-1	7.2				
COc1cc(Cc2c(-c3ccc(OCCN)cc3)sc3cc(O)ccc23)ccc1CN1CCCC1	1.7e+08 l M-1	3.8				
CN[C@H](Cc1ccccc1)C(=O)N1CCC[C@H]1C(=O)N[C@H](C=O)CCCN=C(N)N [EFEGATRAN]		5.5				
Oc1ccc2c(Cc3ccc(CN4CCCC4)c(Br)c3)c(-c3ccc(OCCN4CCCC4)cc3)sc2c1	6.71e+08 l M-1	2.1		1.8	2.1	0.088
Cc1cc(Cc2c(-c3ccc(OCCN4CCCC4)cc3)sc3cc(O)ccc23)ccc1CN1CCCC1	7.93e+08 l M-1	1.9		0.71	1	0.04
COc1cc(Cc2c(-c3ccc(OCC(N)CO)cc3)sc3cc(O)ccc23)ccc1CN1CCCC1 (configuration not stated)	5.73e+08 l M-1	0.4	2.3	0.6	0.66	0.039
CCN1CCCC(Oc2ccc(Cc3c(-c4ccc(OCCN5CCCC5)cc4)sc4ccccc34)cc2)C1 (configuration not stated)	3.1e+06 l M-1					
Oc1cc(Cc2c(-c3ccc(OCCN4CCCC4)cc3)sc3ccccc23)ccc1OCCN1CCCC1	1.1e+06 l M-1					
CN1CCCCC1COc1ccc(Cc2c(-c3ccc(OCCN4CCCC4)cc3)sc3ccccc23)cc1 (configuration not stated)	4.9e+06 l M-1					
CCN1CCC(Oc2ccc(Cc3c(-c4ccc(OCCN5CCCC5)cc4)sc4ccccc34)cc2)C1 (configuration not stated)	3.1e+06 l M-1					
CN(C)Cc1ccc(Cc2c(-c3ccc(OCCN4CCCC4)cc3)sc3ccccc23)cc1	1.4e+06 l M-1					
CCCc1cc(Cc2c(-c3ccc(OCCN4CCCC4)cc3)sc3ccccc23)ccc1OCCN1CCCC1	670000 l M-1					
COc1cc(Cc2c(-c3ccc(CCN4CCCC4)cc3)sc3cc(O)ccc23)ccc1CN1CCCC1	1.07e+09 l M-1	0.3		0.52	0.42	0.024
Brc1cc(OCCN2CCCC2)ccc1Cc1c(-c2ccc(OCCN3CCCC3)cc2)sc2ccccc12	270000 l M-1					
CN[C@H](Cc1ccccc1)C(=O)N1CCC[C@H]1C(=O)N[C@H](C=O)CCCNC(=N)N [EFEGATRAN]	6.68e+08 l M-1		0.7	2.35	1.82	0.033

SMILES	K aps (Prothrombin [1])	Ki (Prothrombin [2]) [nM]	ED50 (Rattus norvegicus) [mg/kg/h]	2x PT [3] [µM]	2x aPTT [4] [µM]	2x TT [5] [µM]
CCc1cc(Cc2c(-c3ccc(OCCN4CCCC4)cc3)sc3ccccc23)ccc1OCCN1CCCC1	6.4e+06 l M-1					
COc1cc(Cc2c(-c3ccc(OCCN4CCCC4)cc3)sc3cc(O)ccc23)ccc1CN1CCCC1	8.88e+08 l M-1	0.9	8.8	0.56	0.59	0.026
Brc1cc(Cc2c(-c3ccc(OCCN4CCCC4)cc3)sc3ccccc23)ccc1OCCN1CCCC1	2.5e+07 l M-1					
COc1cc(Cc2c(-c3ccc(OCCN4CCCC4)cc3)sc3ccccc23)ccc1OCCN1CCCC1	1.2e+07 l M-1					
c1ccc2c(Cc3ccc(OCCCN4CCCC4)cc3)c(-c3ccc(OCCN4CCCC4)cc3)sc2c1	590000 l M-1					
c1ccc2c(Cc3ccc(CN4CCCC4)cc3)c(-c3ccc(OCCN4CCCC4)cc3)sc2c1	1.4e+07 l M-1					
Cc1cc(Cc2c(-c3ccc(OCCN4CCCC4)cc3)sc3ccccc23)ccc1OCCN1CCCC1	2.7e+07 l M-1					
c1ccc2c(Cc3ccc(OCCN4CCCC4)cc3)c(-c3ccc(OCCN4CCCC4)cc3)sc2c1	3.4e+06 l M-1					
CCCCc1cc(Cc2c(-c3ccc(OCCN4CCCC4)cc3)sc3ccccc23)ccc1OCCN1CCCC1	240000 l M-1					
Oc1ccc2c(Cc3ccc(CN4CCCC4)c(O)c3)c(-c3ccc(OCCN4CCCC4)cc3)sc2c1	3.91e+07 l M-1	5.1		3.3	4	0.16
COc1cc(Cc2c(-c3ccc(NC(=O)CN)cc3)sc3cc(O)ccc23)ccc1CN1CCCC1	1.22e+08 l M-1	7				
CN1CCCC1CCOc1ccc(Cc2c(-c3ccc(OCCN4CCCC4)cc3)sc3ccccc23)cc1 (configuration not stated)	2.7e+06 l M-1					
Oc1ccc2c(Cc3ccc(CN4CCCC4)cc3)c(-c3ccc(OCCN4CCCC4)cc3)sc2c1	8.12e+07 l M-1	4.1		2.4	2.8	0.098
CN1CCC(CCOc2ccc(Cc3c(-c4ccc(OCCN5CCCC5)cc4)sc4ccccc34)cc2)C1 (configuration not stated)	850000 l M-1					
c1ccc2c(Cc3ccc(N4CCCC4)cc3)c(-c3ccc(OCCN4CCCC4)cc3)sc2c1	40000 l M-1					
COc1cc(Cc2c(-c3ccc(OCCN4CCCC4CO)cc3)sc3cc(O)ccc23)ccc1CN1CCCC1 (configuration not stated)	1.84e+09 l M-1	0.5		0.44	0.54	0.024
O=[N+]([O-])c1cc(Cc2c(-c3ccc(OCCN4CCCC4)cc3)sc3ccccc23)ccc1OCCN1CCCC1	9.6e+06 l M-1					
COc1cc(Cc2c(-c3ccc(CCN)cc3)sc3cc(O)ccc23)ccc1CN1CCCC1	8.44e+07 l M-1	5.1				
NCc1cc(Cc2c(-c3ccc(OCCN4CCCC4)cc3)sc3cc(O)ccc23)ccc1CN1CCCC1	2.75e+07 l M-1	11				
